pEC50, pIC50, pKi: −log10 of the molar value.

Test [1] has as its target T1, Melanocortin receptor 4 (Homo sapiens, UniProt P32245). In words: Displacement of […]NDPMSH from human MC4R expressed in HEK293 cells. Format: cell-based.
The target in test [2] is T1, Melanocortin receptor 4. In words: Agonist activity at MC4R assessed as stimulation of cAMP release relative to alphaMSH. Format: functional.
For test [3], the target named is T1, Melanocortin receptor 4. The experiment in a line: Antagonist activity at MC4R assessed as inhibition of alpha-MSH-stimulated cAMP release. The class given is functional.
For test [4], the target named is T1, Melanocortin receptor 4. In words: Agonist activity at MC4R assessed as stimulation of cAMP release. Format: functional.
For test [5], the target named is Melanocyte-stimulating hormone receptor (Homo sapiens, UniProt Q01726). The experiment in a line: Binding affinity to MC1R.
Chain of Melanocyte-stimulating hormone receptor (Q01726 whole entry): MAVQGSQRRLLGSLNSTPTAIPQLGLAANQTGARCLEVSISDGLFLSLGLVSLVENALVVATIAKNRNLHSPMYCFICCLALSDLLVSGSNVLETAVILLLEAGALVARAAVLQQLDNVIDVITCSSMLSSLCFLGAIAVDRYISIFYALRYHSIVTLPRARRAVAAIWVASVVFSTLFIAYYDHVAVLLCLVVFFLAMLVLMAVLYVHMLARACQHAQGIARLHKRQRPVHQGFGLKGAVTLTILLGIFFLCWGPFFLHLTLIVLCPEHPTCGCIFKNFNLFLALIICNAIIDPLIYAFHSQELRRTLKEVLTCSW
In test [6] the target is Melanocortin receptor 3 (Homo sapiens, UniProt P41968). In words: Binding affinity to MC3R.
Chain of Melanocortin receptor 3 (P41968 whole entry): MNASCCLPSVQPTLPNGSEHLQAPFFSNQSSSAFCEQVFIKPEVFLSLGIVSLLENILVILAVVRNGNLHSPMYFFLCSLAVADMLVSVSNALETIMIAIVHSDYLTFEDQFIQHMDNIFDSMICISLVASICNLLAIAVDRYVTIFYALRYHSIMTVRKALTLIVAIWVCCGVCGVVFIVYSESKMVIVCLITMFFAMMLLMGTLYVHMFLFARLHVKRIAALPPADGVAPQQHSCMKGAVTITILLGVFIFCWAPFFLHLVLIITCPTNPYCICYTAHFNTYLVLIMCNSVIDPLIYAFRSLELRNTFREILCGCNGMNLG
Test [7] concerns the target Melanocortin receptor 5 (Homo sapiens, UniProt P33032). The experiment in a line: Binding affinity to MC5R.
Test [8] concerns the target Melanocortin receptor 4 (Mus musculus, UniProt P56450). The experiment in a line: Binding affinity to mouse MC4R.

T1 sequence (P32245 whole entry): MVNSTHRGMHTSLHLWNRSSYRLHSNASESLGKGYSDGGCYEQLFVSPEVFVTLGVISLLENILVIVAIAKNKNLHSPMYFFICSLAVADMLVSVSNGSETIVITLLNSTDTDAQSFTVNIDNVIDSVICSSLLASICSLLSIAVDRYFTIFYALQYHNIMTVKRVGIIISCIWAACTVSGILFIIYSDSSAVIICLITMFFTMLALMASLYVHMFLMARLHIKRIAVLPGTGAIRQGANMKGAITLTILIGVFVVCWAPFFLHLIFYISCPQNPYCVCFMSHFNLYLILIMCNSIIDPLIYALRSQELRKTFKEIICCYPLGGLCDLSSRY
Chain of Melanocortin receptor 4 (Mus musculus, UniProt P56450) (P56450 whole entry): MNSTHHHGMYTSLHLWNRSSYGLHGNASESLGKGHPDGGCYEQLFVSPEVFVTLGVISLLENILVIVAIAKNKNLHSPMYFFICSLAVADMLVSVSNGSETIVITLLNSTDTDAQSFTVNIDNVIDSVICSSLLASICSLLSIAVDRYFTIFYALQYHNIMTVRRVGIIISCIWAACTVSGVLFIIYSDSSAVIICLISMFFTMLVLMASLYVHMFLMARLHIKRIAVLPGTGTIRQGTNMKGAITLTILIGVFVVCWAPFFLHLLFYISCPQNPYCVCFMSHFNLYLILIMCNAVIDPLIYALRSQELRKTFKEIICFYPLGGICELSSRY
Chain of Melanocortin receptor 5 (P33032 whole entry, looked up): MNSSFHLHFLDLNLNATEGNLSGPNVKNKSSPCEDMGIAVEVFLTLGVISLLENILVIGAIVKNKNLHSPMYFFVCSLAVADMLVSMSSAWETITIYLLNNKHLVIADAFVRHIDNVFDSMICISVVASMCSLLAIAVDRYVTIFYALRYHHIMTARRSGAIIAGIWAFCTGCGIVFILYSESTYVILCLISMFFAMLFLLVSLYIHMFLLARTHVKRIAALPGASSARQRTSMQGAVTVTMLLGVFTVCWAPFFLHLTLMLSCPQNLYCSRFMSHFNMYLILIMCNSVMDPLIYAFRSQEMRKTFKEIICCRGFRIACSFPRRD

The molecule `CC(C)N1C[C@H](C(=O)N2CCN(C3(CNCc4ccncc4)CCCCC3)CC2)[C@@H](c2ccc(Cl)cc2)C1` showed a pKi in test [1] of 7.57. The Intrinsic activity in test [2] worked out at 27%. Also, the pIC50 in test [3] was 6.39. Moreover, the pEC50 in test [4] was 6.11.

Regarding `COc1ccc(CNCC2(N3CCN(C(=O)[C@H]4CN(C(C)C)C[C@@H]4c4ccc(Cl)cc4)CC3)CCCCC2)cc1F`, the negative-log Ki (pKi) in test [1] was 9.30; in test [5], 5.41; in test [6] it was 6.12; in test [7] it was 6.27; in test [8] it was 9.22. In addition, the Intrinsic activity in test [2] was determined as 10%. For the same molecule, the pIC50 in test [3] is 7.32. Besides, in test [4], the pEC50 is 6.77.

`O=C([C@H]1CN(C2CCCCC2)C[C@@H]1c1ccc(Cl)cc1)N1CCN(C2(CNCc3ccccc3)CCCCC2)CC1` had a pKi in test [1] of 8.26. Also, the Intrinsic activity in test [2] was determined as 16%. Also, the negative logarithm of the IC50 (pIC50) in test [3] was 6.89. For the same molecule, in test [4], the pEC50 is 5.82.

The molecule `CC(C)N1C[C@H](C(=O)N2CCN(C3(CNCc4ccccn4)CCCCC3)CC2)[C@@H](c2ccc(Cl)cc2)C1` gave a negative-log Ki (pKi) in test [1] of 7.12. Further, the Intrinsic activity in test [2] came to 34%. Moreover, the pEC50 in test [4] was 5.92.

In test [1], `COc1ccccc1CNCC1(N2CCN(C(=O)[C@H]3CN(C(C)C)C[C@@H]3c3ccc(Cl)cc3)CC2)CCCCC1` had a pKi of 7.21. Also, the Intrinsic activity in test [2] is 48%. Further, the pEC50 in test [4] is 6.00.

On to `CC(C)N1C[C@H](C(=O)N2CCN(C3(CNCc4cncnc4)CCCCC3)CC2)[C@@H](c2ccc(Cl)cc2)C1`, for which, in test [1], the pKi is 6.66. In addition, the Intrinsic activity in test [2] came to 66%. In addition, the pEC50 in test [4] is 6.66.

Take `COc1cccc(CNCC2(N3CCN(C(=O)[C@H]4CN(C(C)C)C[C@@H]4c4ccc(Cl)cc4)CC3)CCCCC2)c1`: the pKi in test [1] is 7.52. Moreover, in test [2], the Intrinsic activity came to 39%. In test [4], the pEC50 was 5.92.

The molecule `CC(C)N1C[C@H](C(=O)N2CCN(C3(CNCc4ccccc4)CCCCC3)CC2)[C@@H](c2ccc(Cl)cc2)C1` showed a pKi in test [1] of 7.59. In test [2], the Intrinsic activity is 31%. Besides, the pEC50 in test [4] is 5.96.

With `CC(C)N1C[C@H](C(=O)N2CCN(C3(CNCc4ccsc4)CCCCC3)CC2)[C@@H](c2ccc(Cl)cc2)C1`, in test [1], the pKi was 7.66. Further, in test [2], the Intrinsic activity came out at 31%. For the same molecule, the pEC50 in test [4] was 6.08.

As to `CC(C)N1C[C@H](C(=O)N2CCN(C3(CNCc4ccccc4Cl)CCCCC3)CC2)[C@@H](c2ccc(Cl)cc2)C1`, the negative-log Ki (pKi) in test [1] is 7.60. Moreover, the Intrinsic activity in test [2] amounted to 75%. The pEC50 in test [4] was 5.89.

As to `CC(C)N1C[C@H](C(=O)N2CCN(C3(CNCc4nccs4)CCCCC3)CC2)[C@@H](c2ccc(Cl)cc2)C1`, the pKi in test [1] was 6.89. Further, the Intrinsic activity in test [2] is 72%. Further, the pEC50 in test [4] is 6.13.

Regarding `CC(C)N1C[C@H](C(=O)N2CCN(C3(CNCc4ccc(F)cc4)CCCCC3)CC2)[C@@H](c2ccc(Cl)cc2)C1`, the pKi in test [1] was 7.36. For the same molecule, in test [2], the Intrinsic activity came to 61%. Also, in test [4], the pEC50 was 5.18.

For the molecule `CC(C)N1C[C@H](C(=O)N2CCN(C3(CNCc4ncc[nH]4)CCCCC3)CC2)[C@@H](c2ccc(Cl)cc2)C1`, in test [1], the pKi is 6.25. Also, the Intrinsic activity in test [2] came out at 69%. For the same molecule, the negative logarithm of the EC50 (pEC50) in test [4] was 6.64.

In test [1], `CC(C)N1C[C@H](C(=O)N2CCN(C3(CNCc4ccccc4F)CCCCC3)CC2)[C@@H](c2ccc(Cl)cc2)C1` had a pKi of 7.92. Also, the Intrinsic activity in test [2] was 48%. The pEC50 in test [4] was 6.24.

As to `CC(C)N1C[C@H](C(=O)N2CCN(C3(CNCc4ccc(F)cc4F)CCCCC3)CC2)[C@@H](c2ccc(Cl)cc2)C1`, the pKi in test [1] was 7.96. In test [2], the Intrinsic activity was 27%. The pEC50 in test [4] is 5.89.

In the case of `CC(C)N1C[C@H](C(=O)N2CCN(C3(CNCc4ccoc4)CCCCC3)CC2)[C@@H](c2ccc(Cl)cc2)C1`, the pKi in test [1] is 7.12. In addition, the Intrinsic activity in test [2] came to 53%. In test [4], the pEC50 was 6.32.

As to `COc1ccc(CNCC2(N3CCN(C(=O)[C@H]4CN(C(C)C)C[C@@H]4c4ccc(Cl)cc4)CC3)CCCCC2)c(F)c1`, the negative-log Ki (pKi) in test [1] is 8.74. Moreover, the Intrinsic activity in test [2] was 26%. Besides, the pEC50 in test [4] is 5.80.

Regarding `CC(C)N1C[C@H](C(=O)N2CCN(C3(CNCc4cccs4)CCCCC3)CC2)[C@@H](c2ccc(Cl)cc2)C1`, the pKi in test [1] is 7.43. The Intrinsic activity in test [2] was 58%. In test [4], the negative logarithm of the EC50 (pEC50) was 6.23.

As a reminder, the pKi is −log10 of the Ki, conventionally taken in molar units. A lower pKi goes with a large Ki. As usually defined, the pIC50 is the negative decadic logarithm of the IC50, by convention in mol/L. By pEC50 is commonly meant the negative decadic logarithm of the EC50, by convention in mol/L.
